Experimental data reported in patent US8609413B2, “Neurons, astrocytes and oligodendrocytes differentiated from a mammalian pluripotent or neural stem cells exposed to a pyridine deriviative” (Research Development Foundation, priority 2007, dated 2013).
Entries after “also recorded” stand apart in the source; their conditions may differ.

Columns and labels:
Type in all cases: cell-based
[1] = tested on: CGR8 mouse ES cells; assay: Secondary screening assay: neuronal differentiation of mouse ES cells, total neurite outgrowth; details: 5 days with compound in SR medium, then 4 days N2 medium without compound; vs control cells
Experimental: To perform the secondary screening assay, neuronal differentiation of CGR8 cells was carried out in SR medium (DMEM high glucose supplemented with 15% KO serum (Gibco), non-essential amino acids, penicillin and streptomycin). Cells were plated at 10^5 cells per 10 cm cell culture dish and maintained is SR medium for 5 days with compounds found in the primary screen. Cells were subsequently dissociated and replated at 4×10^4 cells/cm^2 in N2 medium (DMEM high glucose, N2 supplement, 10 ng/ml basic fibroblast growth factor, penicillin and streptomycin) and cultured for four additional days without compound addition. Immunostaining quantification. Immunostaining and nuclear staining quantifications were performed using the MetaXpress software (Molecular devices). Total neurite outgrowth was quantified using the neurite outgrowth analysis module, and total cell numbers were quantified with the count nuclei analysis module. For further studies, 32 compounds were selected with high Fluc/Rluc ratio. A dose-response analysis of Fluc/Rluc ratio was performed in the same conditions as used for the primary screen, using concentrations ranging from 100 nM to 100 μM. […] The amounts of neurons were quantified by calculating total neurite outgrowth identified by β3-tubulin immunoreactivity using an automated imaging system (see Methods above).

[2] = tested on: human ES cell-derived engineered neural tissues (ENTs); assay: Three-dimensional neuronal differentiation / engineered neural tissues (ENTs) from human ES cells; details: for number / density of rosettes in ENT: first steps of ENT formation, 1 month old ENTs; for non-neural cells / tissue within ENT (mesenchyma, dark pigmented zones), homogeneity: macroscopic view
Source text: ENTs are 3-dimensional pieces of tissues derived from embryonic stem cells (ES) which resemble certain layers of human fetal brain.
For three-dimensional neuronal differentiation, 5-10 spheres were generated as described in differentiation protocol 2 and plated on a pre-cut patch of hydrophilic polytetrafluoroethylene (PTFE) membrane (confetti, 6 mm diameter, 0.4 μm, BioCell-Interface, La Chaux-de-Fonds, Switzerland). Next, the membrane was placed in a Millicell®-CM (0.4 μm) Culture Plate Insert (Millipore) on one ml of N2 medium. The medium was changed every 2-3 days. This method has been described for tissue slices previously (Stoppini et al., 1991) and has been recently adapted to ES cell-derived neural tissue by Preynat-Seauve et al. (attached manuscript).
Next, the activity of phenazopyridine was tested on neuronal differentiation in a three-dimensional culture system.

[3] = tested on: HS401 human ES cells; assay: Differentiation protocol 2 in HS401 cell line; details: 3 μM vs DMSO
Experimental: Two different protocols were used to induce neuronal differentiation of human ES cells. In the first protocol, human ES cells were mechanically dissociated into small aggregates and plated on laminin/polyornithine coated six-well plates. Cells were cultured 2 weeks in human SR medium (DMEM F-12 supplemented with 15% knockout serum (Gibco), non-essential amino acids, penicillin and streptomycin), followed by 4 weeks in N2 medium. Compounds were added throughout these first 6 weeks. Subsequently, cells were mechanically dissociated and replated on polyornithine/laminin-coated 6 well plates. Throughout the text, this first differentiation protocol will be referred to as “differentiation protocol 1”. The second differentiation protocol was derived from previously described differentiation conditions (Nat et al., 2007). In the second differentiation protocol, undifferentiated human ES cells were mechanically dissociated into small aggregates and cultured in suspension on low-attachment six-well plates. For the first 4 days, they were cultured in neuronal induction medium (DMEM F-12, N2 supplement, penicillin and streptomycin), which was changed to simple neuronal proliferation medium (DMEM F-12, N2 supplement, 20 ng/ml bFGF, penicillin and streptomycin) for 2 additional days. […]

With Nc1ccc(/N=N/c2ccccc2)c(N)n1 [phenazopyridine] the “total neurite outgrowth identified by β3-tubulin immunoreactivity” value [1] was “increase of total neurite outgrowth as compared to control cells”, the “quality of engineered neural tissues (ENTs)” value ([2]; 3 μM) was “substantially increased the quality” and the “total number of neural tubes per three-dimensional culture” value ([2]; 2 weeks and 4 weeks of differentiation, vs control) was “significant increase”. For the same molecule, the “number / density of rosettes in ENT” value [2] was “improved densities of rosettes”, the “number / density of rosettes in ENT” value ([2]; listed as Phenazopyridine) was “increased the number of rosettes” and the “non-neural cells / tissue within ENT (mesenchyma, dark pigmented zones), homogeneity” value ([2]; with vs without compound) was “decreased the incidence of cells differentiating into non-neuronal cells within ENT”. For the same molecule, the “non-neural cells / tissue within ENT (mesenchyma, dark pigmented zones), homogeneity” value ([2]; with vs without compound, listed as phenazopridine) was “displayed less mesenchyma (FIG. 3) and fewer dark pigmented zones; also recorded: more homogenous and appeared to contain a reduced amount of non-neural cells”, the “cartilage by immunofluorescent staining of tenascin C in ENTs” value ([2]; with vs without compound) was “cartilage was not observed” and the “morphology and dissociation observations in HS401 cell line” value [3] was “confirmed”.
